Key:
Assay in all cases: combination Emax (second highest fraction inhibited in the dose matrix, 72 h); higher = more inhibition; extreme values may be limits of the assay
[1] = system: HCC-78 (Lung Adenocarcinoma)
Summary of the method: (§1)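 After 24 hours at 37°C and 5% CO2 in 1536-well plates, cells in DMEM/F12 or RPMI plus 10% FBS received two-drug dose matrices for 72 hours. Viability came from CellTiter-Glo 2.0 luminescence and was scaled as inhibition, anchored at 0 by vehicle wells and at 1 by blank wells. Combination Emax is taken as the second-highest inhibition in the matrix, and Bliss excess as the observed combination effect less EA + EB − EA·EB, with EA and EB the single-agent effects.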

[2] = system: RC-K8 (B-Cell Non-Hodgkin's Lymphoma)
Summary of the method: as §1

[3] = system: HO-1-N-1 (Oral Cavity Carcinoma)
Summary of the method: as §1

[4] = system: Daoy (Other Solid Carcinomas)
Summary of the method: as §1

[5] = system: LB831-BLC (Bladder Carcinoma)
Summary of the method: as §1

[6] = system: NCI-H82 (Small Cell Lung Carcinoma)
Summary of the method: as §1

[7] = system: HuP-T4 (Pancreatic Carcinoma)
Summary of the method: as §1

[8] = system: TE-9 (Esophageal Squamous Cell Carcinoma)
Summary of the method: as §1

[9] = system: CCRF-CEM (T-Lymphoblastic Leukemia)
Summary of the method: as §1

[10] = system: UM-UC-3 (Bladder Carcinoma)
Summary of the method: as §1

[11] = system: MFE-296 (Endometrial Carcinoma)
Summary of the method: as §1

[12] = system: MDA-MB-361 (Breast Carcinoma)
Summary of the method: as §1

[13] = system: NCI-H2085 (Non-Small Cell Lung Carcinoma)
Summary of the method: as §1

[14] = system: HT-1376 (Bladder Carcinoma)
Summary of the method: as §1

ES4 (Ewing's Sarcoma) = system: ES4 (Ewing's Sarcoma)
Summary of the method: as §1

[15] = system: DEL (T-Cell Non-Hodgkin's Lymphoma)
Summary of the method: as §1

[16] = system: SNU-5 (Gastric Carcinoma)
Summary of the method: as §1

[17] = system: CaR-1 (Colorectal Carcinoma)
Summary of the method: as §1

AGS (Gastric Carcinoma) = system: AGS (Gastric Carcinoma)
Summary of the method: as §1

[18] = system: TCCSUP (Bladder Carcinoma)
Summary of the method: as §1

Structure (SMILES)	combination Emax [1]	combination Emax [2]	combination Emax [3]	combination Emax [4]	combination Emax [5]	combination Emax [6]	combination Emax [7]	combination Emax [8]	combination Emax [9]	combination Emax [10]	combination Emax [11]	combination Emax [12]	combination Emax [13]	combination Emax [14]	combination Emax (ES4 (Ewing's Sarcoma))	combination Emax [15]	combination Emax [16]	combination Emax [17]	combination Emax (AGS (Gastric Carcinoma))	combination Emax [18]
Cc1c2c(nn1C)CSCc1cc(n(C)n1)CSc1cc(c3ccccc3c1)OCCCc1c(C(=O)O)n(C)c3c-2c(Cl)ccc13 [AZD5991] + C[C@@H](Nc1cc(F)cc(F)c1)c1cc(C(=O)N(C)C)cc2c(=O)cc(N3CCOCC3)oc12 [AZD8186] (first compound max 1 µM, 7x7, partner max 3 µM)	0.413	0.2	0.933	0.391	0.366	0.905	0.442	0.135	0.27	0.311	0.265	0.806	0.691	0.225	0.305	1	0.427	0.174	0.246	0.227
Cc1c2c(nn1C)CSCc1cc(n(C)n1)CSc1cc(c3ccccc3c1)OCCCc1c(C(=O)O)n(C)c3c-2c(Cl)ccc13 [AZD5991] + C[C@@H]1COCCN1C2=NC(=NC(=C2)C3(CC3)[S@](=N)(=O)C)C4=C5C=CNC5=NC=C4 [AZD6738] (first compound max 1 µM, 7x7, partner max 10 µM)	0.544	0.781	0.928	0.945	0.439	0.99	0.51	0.366	1	0.401	0.791	0.962	0.52	0.455	0.885	1	0.942	0.362	0.821	0.648
NC1(C(=O)N[C@@H](CCO)c2ccc(Cl)cc2)CCN(c2ncnc3[nH]ccc23)CC1 [Capivasertib] + CC(C)n1c(=O)n(C)c2cnc3cc(F)c(-c4ccc(OCCCN5CCCCC5)nc4)cc3c21 [AZD1390] (first compound max 10 µM, 7x7, partner max 0.3 µM)	0.259	0.224	0.435	0.33	0.493	0.912	0.128	0.17	0.457	0.311	0.488	0.44	0.258	0.144	0.277	0.44	0.43	0.365	0.444	0.321
COc1nnc2ccc(N3CCC(c4ccc(OCCN5CCN(C)C(=O)[C@H]5C)cc4)CC3)nn12 [AZD5153] + CC1(C)CCC(CN2CCN(c3ccc(C(=O)NS(=O)(=O)c4ccc(NCC5CCOCC5)c([N+](=O)[O-])c4)c(Oc4cnc5[nH]ccc5c4)c3)CC2)=C(c2ccc(Cl)cc2)C1 [Venetoclax] (first compound max 1 µM, 7x7, partner max 1 µM)	0.411	0.738	0.682	0.487	0.499	0.467	0.485	0.13	0.562	0.278	0.27	0.443	0.404	0.242	0.616	0.809	0.469	0.384	0.774	0.252
NC1(C(=O)N[C@@H](CCO)c2ccc(Cl)cc2)CCN(c2ncnc3[nH]ccc23)CC1 [Capivasertib] + CC(=O)c1c(C)c2cnc(Nc3ccc(N4CCNCC4)cn3)nc2n(C2CCCC2)c1=O [Palbociclib] (first compound max 10 µM, 7x7, partner max 10 µM)	0.344	0.435	0.635	0.397	0.453	0.836	0.305	0.227	0.798	0.491	0.493	0.546	0.295	0.144	0.412	0.892	0.379	0.436	0.697	0.317
NC1(C(=O)N[C@@H](CCO)c2ccc(Cl)cc2)CCN(c2ncnc3[nH]ccc23)CC1 [Capivasertib] + COc1nnc2ccc(N3CCC(c4ccc(OCCN5CCN(C)C(=O)[C@H]5C)cc4)CC3)nn12 [AZD5153] (first compound max 10 µM, 7x7, partner max 1 µM)	0.389	0.761	0.887	0.676	0.608	0.885	0.442	0.354	0.905	0.411	0.694	0.718	0.6	0.108	0.624	0.893	0.564	0.648	0.944	0.35
COc1nnc2ccc(N3CCC(c4ccc(OCCN5CCN(C)C(=O)[C@H]5C)cc4)CC3)nn12 [AZD5153] + Cc1c2c(nn1C)CSCc1cc(n(C)n1)CSc1cc(c3ccccc3c1)OCCCc1c(C(=O)O)n(C)c3c-2c(Cl)ccc13 [AZD5991] (first compound max 1 µM, 7x7, partner max 1 µM)	0.522	0.832	0.991	0.801	0.587	0.968	0.606	0.57	0.858	0.281	0.878	0.865	0.64	0.264	0.63	1	0.561	0.434	0.851	0.32
CCN(CCO)CCCOc1ccc2c(Nc3cc(CC(=O)Nc4cccc(F)c4)[nH]n3)ncnc2c1 [AZD2811] + C=CCn1c(=O)c2cnc(Nc3ccc(N4CCN(C)CC4)cc3)nc2n1-c1cccc(C(C)(C)O)n1 [AZD1775] (first compound max 1 µM, partner max 1 µM)	0.327		0.848	0.827	0.456	0.901	0.27	0.207	1	0.258	0.152	0.801	0.688	0.333	0.377	1	0.581	0.223	0.6	0.352
Cc1c2c(nn1C)CSCc1cc(n(C)n1)CSc1cc(c3ccccc3c1)OCCCc1c(C(=O)O)n(C)c3c-2c(Cl)ccc13 [AZD5991] + Cn1cnc2c(F)c(Nc3ccc(Br)cc3Cl)c(C(=O)NOCCO)cc21 [Selumetinib] (first compound max 1 µM, 7x7, partner max 3 µM)	0.253	0.239	0.919	0.278	0.392	0.922	0.957	0.162	0.325	0.28	0.256	0.816	0.631	0.272		1	0.495	0.168	0.964	0.227
C[C@@H](c1ccc2nccn2c1)n1nnc2ncc(-c3cnn(C)c3)nc21 [Savolitinib] + CN(CC[C@H](CSC1=CC=CC=C1)NC2=C(C=C(C=C2)S(=O)(=O)NC(=O)C3=CC=C(C=C3)N4CCC(CC4)[C@H](C5=CC=CC=C5C6=CC=C(C=C6)Cl)O)S(=O)(=O)C(F)(F)F)CCO [AZD4320] (first compound max 1 µM, 7x7, partner max 1 µM)		0.504		0.139			0.124				0.2	0.114			0.557	0.217	1		0.377	0.194
COc1nnc2ccc(N3CCC(c4ccc(OCCN5CCN(C)C(=O)[C@H]5C)cc4)CC3)nn12 [AZD5153] + CN(CC[C@H](CSC1=CC=CC=C1)NC2=C(C=C(C=C2)S(=O)(=O)NC(=O)C3=CC=C(C=C3)N4CCC(CC4)[C@H](C5=CC=CC=C5C6=CC=C(C=C6)Cl)O)S(=O)(=O)C(F)(F)F)CCO [AZD4320] (first compound max 1 µM, 7x7, partner max 1 µM)		1		0.627			0.479				0.31	0.814			0.795	0.844	0.506		0.918	0.297
C=CCn1c(=O)c2cnc(Nc3ccc(N4CCN(C)CC4)cc3)nc2n1-c1cccc(C(C)(C)O)n1 [AZD1775] + O=C(c1cc(Cc2n[nH]c(=O)c3ccccc23)ccc1F)N1CCN(C(=O)C2CC2)CC1 [Olaparib] (first compound max 1 µM, partner max 10 µM)	0.377		0.437	0.882	0.607	0.851	0.251	0.307	1	0.326	0.279	0.861	0.566	0.425	0.563	0.999	0.433	0.257	0.547	0.461
Cc1c2c(nn1C)CSCc1cc(n(C)n1)CSc1cc(c3ccccc3c1)OCCCc1c(C(=O)O)n(C)c3c-2c(Cl)ccc13 [AZD5991] + C1CN(CCC1(C(=O)N[C@@H](CCO)C2=CC=C(C=C2)Cl)N)C3=NC=NC4=C3C=CN4 [Capivasertib] (first compound max 1 µM, 7x7, partner max 3 µM)	0.228	0.161	0.944	0.345	0.352	0.976	0.351		0.637	0.216	0.825	0.718	0.262	0.146	0.19	1	0.288	0.223	0.335	0.25
